{"source": "paper PMC10064330", "about": "“Reversible Dual-Covalent Molecular Locking of the 14-3-3/ERRγ Protein–Protein Interaction as a Molecular Glue Drug Discovery Approach” (Journal of the American Chemical Society, 2023)", "key": {"14-3-3γ/ERRγ complex [1]": {"biological_target": "T1, 14-3-3γ/ERRγ complex (Homo sapiens, UniProt P61981+P62508)", "T1 construct": "made in house; host or cells: E. coli NiCo21 (DE3)", "T1 sequence (P61981 whole entry, other chains not shown)": "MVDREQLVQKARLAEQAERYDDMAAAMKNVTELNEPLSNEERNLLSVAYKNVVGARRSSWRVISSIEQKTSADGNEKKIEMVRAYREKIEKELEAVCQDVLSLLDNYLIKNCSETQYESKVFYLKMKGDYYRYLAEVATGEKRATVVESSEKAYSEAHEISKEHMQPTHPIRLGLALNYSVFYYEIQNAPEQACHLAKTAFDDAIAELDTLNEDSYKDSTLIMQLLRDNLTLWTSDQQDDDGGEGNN", "assay": "Intact mass spectrometry (QTOF-MS) crosslinking of 14-3-3γ and ERRγ", "assay_type": "biochemical", "details": "14-3-3γ 5 μM; for consumption of apo-14-3-3γ into crosslinked ternary complex: ERRγ 25 μM, compound 50 μM, NaCNBH3 reduction, 4 h", "description": "To further confirm the covalent crosslinking in solution, we performed intact mass spectrometry (MS) on the 14-3-3γ/ERRγ/5 and the 14-3-3γ/ERRγ/10 protein complexes. To ensure detection of the acid-labile imine-bonded complexes, the covalent imine bond was reduced in situ to the corresponding secondary amine using sodium cyanoborohydride. Samples were incrementally taken over 4 h and analyzed with high-resolution MS to determine crosslinking of the 14-3-3γ/ERRγ complex (Figure 2f–h and Figures S8 and S9). Intact MS analysis confirmed time-dependent crosslinking of the ternary complex (14-3-3γ/ERRγ/lock). […] A similar result was also observed for 10 (calculated mass: 33,080.4 Da) (Figure S11a–c).\nFigure S8a. QTOF-MS analysis of 14-3-3/ERRg/5 ternary complex formation. LC-MS analysis of time-dependent crosslinking experiment of 14-3-3γ (5 µM) and ERRγ (25 µM) phosphopeptide by compound 5 (50 µM). Controls of just apo 14-3-3γ protein and protein incubated with compound 5 without ERRγ peptide are added. (Left) Chromatograms obtained for each sample after x amount of incubation. […] Calculated mass 14 -3-3γ […]\nFigure S9. […] Based on the determined peak intensity of apo 14-3-3γ (peak A) and 14-3-3γ in complex with ERRg and staple 5 (peak B), the percentage of ternary complex is determined for each time point. […]\n(§1) Different Scanning Fluorimetry (DSF) assays were performed using 40 µL samples containing 5 µM 14-3-3γ, 50 µM ERRγ pS179 9-mer peptide, 200 µM compound (or 1% DMSO) and 5x ProteoOrange (Lumiprobe, 5000x stock in DMSO) in 10 mM Hepes, 150 mM NaCl, 50 µM TCEP (pH 8.0). […] Fluorescence intensity was determined using excitation 470/40 nm and emission 570/20 nm filters. Based on these melting curves, the negative derivative melting curve is obtained from which the melting temperature Tm was determined. ΔTm values represent the differences in melting temperature relative to the DMSO control. All described melting temperatures are based on three independent experiments from which the average and standard deviations were determined using excel. […]"}, "14-3-3γ/ERRγ complex [2]": {"biological_target": "T1, 14-3-3γ/ERRγ complex", "assay": "Time-dependent intact MS in competitive mixture of nine client phosphopeptides", "assay_type": "biochemical", "excerpt": "14-3-3 proteins interact with many phosphorylated proteins, with differing affinities and cellular concentrations.[44],[49],[50] On the cellular level, there is a large reservoir of 14-3-3, typically in vast excess to its binding partners. Notwithstanding, we were interested in developing a testable model for the effect of the molecular locking on a PPI network. To investigate the intricacies of selective stabilization of the 14-3-3/ERRγ interaction in a complex matrix, we performed time-dependent intact MS experiments in a competitive environment of excess of 14-3-3 client phosphopeptides. A mixture of 14-3-3 (1 eq.), molecular lock 5 (10 eq.), ΕRRγ (2 eq.), and eight additional client phosphopeptides (8 × 2 eq.) was incubated, and incremental samples were taken, quenched with sodium cyanoborohydride, and measured (Figure 5). […] The peptide panel contained four higher-affinity and three lower-affinity 14-3-3 binding clients, relative to ERRγ, (Figure 5b) and contained +1 Cys-containing peptides RND3 and PKR.\nFigure S23a. QTOF-MS analysis of 14-3-3/peptide mix/5. […] Calculated mass 14-3-3γ apo:\n31542.8 Da. Calculated mass covalently crosslinked 14-3-3γ/ERRγ/5 complex: 33019.5 Da. […]\nas §1"}}}
{"smiles": "CN(C)CCSSCCN(C)C(=O)c1ccc(C=O)c(F)c1", "note": "[compound 5]", "values": [{"measurement": "consumption of apo-14-3-3γ into crosslinked ternary complex", "setting": "14-3-3γ/ERRγ complex [1]", "result": "near quantitative consumption of apo-14-3-3γ"}, {"measurement": "crosslinking of 14-3-3/ERRγ in isolation", "setting": "14-3-3γ/ERRγ complex [1]; only ERRγ phosphopeptide 10 μM, 5 50 μM", "result": "~70", "unit": "%"}, {"measurement": "maximum crosslinking efficiency (14-3-3γ/ERRγ/5 complex formation)", "setting": "14-3-3γ/ERRγ complex [2]; 14-3-3γ 5 μM, ERRγ 10 μM, 5 50 μM, eight additional phosphopeptides 10 μM each", "result": 35, "unit": "%"}, {"measurement": "increase in total number of 14-3-3/ERRγ complexes in solution", "setting": "14-3-3γ/ERRγ complex [2]; intact MS 35% vs modeled 2.4% ERRγ bound", "result": 15, "unit": "fold"}, {"measurement": "reduction in crosslinking capacity, peptide mix vs ERRγ in isolation", "setting": "14-3-3γ/ERRγ complex [2]; peptide competitors relative to ERRγ 8:1", "result": "~2", "unit": "fold"}]}
{"smiles": "CN(C)CCSSCCN(C)C(=O)c1cc(Br)cc(C=O)c1", "note": "[compound 10]", "values": [{"measurement": "consumption of apo-14-3-3γ into crosslinked ternary complex", "setting": "14-3-3γ/ERRγ complex [1]", "result": "complete consumption of apo-14-3-3γ was not observed"}]}
